IC50 data for six compounds are collected here from ChEMBL document CHEMBL5120926, “Isolation and Synthesis of Azuriaplysins A and B, Bromoditerpenes with an α-Methylene Carbonyl from the Sea Hare Aplysia kurodai” (J Nat Prod, 2022).

The first experiment deals with HeLa S3. Nature of the experiment: Cytotoxicity against human HeLa S3 cells assessed as inhibition of cell growth incubated for 72 hrs by MTT assay. The format is functional, cell-based. To be noted: Homo sapiens, HeLa S3, 72 h. On the technique in general: Tetrazolium assays rely on reduction of a dye to a coloured formazan, in cell work by metabolically active cells.
What is called IC50 is the concentration at which inhibition is half-maximal. In the case of `C=C(CC[C@@H]1[C@@]2(C)CC[C@H](Br)C(C)(C)[C@@H]2CC[C@@]1(C)O)C(=O)CO` (stereo in doubt; form 1), the 50% inhibitory concentration (IC50) came out at 8.1 µM.

Staying with this experiment, now noted: hela s3.
As for `C=C(CC[C@@H]1[C@@]2(C)CC[C@H](Br)C(C)(C)[C@@H]2CC[C@@]1(C)O)C(=O)CO` (stereo in doubt; form 2), the half-inhibitory concentration (IC50) was 5.2 µM.

For `C=C(C=O)CC[C@@H]1[C@@]2(C)CC[C@H](Br)C(C)(C)[C@@H]2CC[C@@]1(C)O` (stereo in doubt; form 2), the IC50 was 24 µM.

With `C=C(CC[C@@H]1[C@@]2(C)CC[C@H](Br)C(C)(C)[C@@H]2CC[C@@]1(C)O)C(=O)CO` (stereo in doubt; form 3), the half-inhibitory concentration (IC50) was 4.1 µM.

On to `C=C(C=O)CC[C@@H]1[C@@]2(C)CC[C@H](Br)C(C)(C)[C@@H]2CC[C@@]1(C)O` (stereo in doubt; form 1), for which the half-maximal inhibitory concentration (IC50) was found to be 40 µM.

Take `C=C(C=O)CC[C@@H]1[C@@]2(C)CC[C@H](Br)C(C)(C)[C@@H]2CC[C@@]1(C)O` (stereo in doubt; form 3): the IC50 came out at 14 µM.
